Results as given in patent publication US20260062426A1, “CYCLIN DEPENDENT KINASE DEGRADERS AND METHODS OF USE THEREOF” (Differentiated Therapeutics Inc, priority 2023, published 2026).

Assays:
Assay type in all cases: cell-based
[1] = target: T1, CDK2 (Homo sapiens, UniProt P24941); experiment: CDK2 HIBIT PQ (protein quantification), degradation; conditions: for CDK2 HIBIT PQ Max (%): Max = Maximum; for DC50: PQ = Protein Quantification
T1 construct: host or cells: HEK293
Procedure, shortened: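 DC50 and maximal degradation were derived from a HiBiT lytic readout in HEK293 cells carrying HiBiT-tagged CDK2. Cells were seeded in 384-well plates at 1.6×10^5 cells/well in 50 uL of DMEM with 10% FBS, incubated overnight at 37° C and 5% CO2, treated with compound for 6 hours, and then given 20 μL of HiBiT reagent with 20 minutes of shaking at room temperature before an EnVision reading. Wells with 0.1% DMSO served as the high control and wells with medium only as the low control.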

[2] = target: T2, CDK9 (Homo sapiens, UniProt P50750); experiment: CDK9 HIBIT PQ (protein quantification), degradation; conditions: for Dmax: Max = Maximum; for DC50: PQ = Protein Quantification
T2 construct: host or cells: HEK293
T2 sequence (P50750 whole entry): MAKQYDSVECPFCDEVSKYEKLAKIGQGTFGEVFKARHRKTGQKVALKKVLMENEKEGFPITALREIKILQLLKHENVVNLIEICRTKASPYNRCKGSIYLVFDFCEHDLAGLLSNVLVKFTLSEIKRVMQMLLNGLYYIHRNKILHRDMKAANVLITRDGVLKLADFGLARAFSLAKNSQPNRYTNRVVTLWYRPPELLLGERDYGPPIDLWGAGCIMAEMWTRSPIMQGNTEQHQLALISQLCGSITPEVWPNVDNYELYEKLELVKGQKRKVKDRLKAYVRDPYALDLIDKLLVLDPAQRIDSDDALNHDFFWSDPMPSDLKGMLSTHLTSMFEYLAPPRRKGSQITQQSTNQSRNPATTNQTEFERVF
Procedure, shortened: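 HEK293 cells bearing HiBiT-tagged CDK9 were cultured in DMEM with 10% FBS, plated into 384-well plates at 1.6×10^5 cells/well in 50 uL, and left overnight at 37° C and 5% CO2. A HiBiT assay measured CDK9 protein after compound treatment, with 0.1% DMSO-treated cells as the high control and culture medium alone as the low control. These readings gave the maximal degradation, Dmax and DC50.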

[3] = target: T3, CCNE1 (Homo sapiens, UniProt P24864+P24941); experiment: CCNE1 HIBIT PQ (protein quantification), degradation; conditions: for CCNE1 HIBIT PQ Max (%): Max = Maximum; for DC50: PQ = Protein Quantification
T3 construct: host or cells: HEK293
Procedure, shortened: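 HEK293 cells with HiBiT-tagged CCNE1 were cultured in EMEM containing 10% FBS, plated at 1.6×10⁵ cells/well in 50 uL in 384-well plates and left overnight at 37° C with 5% CO₂. After 6 hours of compound exposure, a HiBiT assay measured CCNE1 protein, with 0.1% DMSO-treated cells as the high control and medium alone as the low control. DC50 and maximal degradation came from these readings.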

CDK2 HIBIT PQ Max (%) [1]	DC50 [1]	Dmax [2]	CCNE1 HIBIT PQ Max (%) [3]	DC50 [2]	DC50 [3]	SMILES
88%	–	71%	64%	0.5 nM	0.17 nM	CC(C)Oc1c(-c2cn[nH]c2)ncn2nc(Nc3ccc(S(=O)(=O)N4CCCC(CN5CCC(c6ccc7c(c6)n(C)c(=O)n7C6CCC(=O)NC6=O)CC5)C4)cc3F)nc12 (centres unmarked) [Compound 72]
86%	0.1 nM	68%	66%	1.34 nM	0.4 nM	Cc1cc(Nc2nc3c(OC(C)C)c(-c4cn[nH]c4)ncn3n2)c(F)cc1S(=O)(=O)N(C)CCCN1CCC(c2ccc3c(c2)n(C)c(=O)n3C2CCC(=O)NC2=O)CC1 (racemic) [Compound 59]
78%	–	29%	35%	–	–	CC(C)Oc1c(-c2cn[nH]c2)ncn2nc(Nc3ccc(S(=O)(=O)N4CCC(CN5CCC(c6ccc7c(c6)n(C)c(=O)n7C6CCC(=O)NC6=O)CC5)C4)cc3F)nc12 (centres unmarked) [Compound 71]
89%	0.1 nM	74%	82%	1.57 nM	0.59 nM	CC(C)Oc1c(-c2cn[nH]c2)ncn2nc(Nc3ccc(S(=O)(=O)N(C)CCCN4CCC(c5ccc6c(c5)n(C)c(=O)n6C5CCC(=O)NC5=O)CC4)cc3)nc12 (racemic) [Compound 54]
90%	0.6 nM	87%	82%	2.19 nM	0.64 nM	CC(C)Oc1c(-c2cn[nH]c2)ncn2nc(Nc3ccc(S(=O)(=O)N(C)CCCN4CCC(c5cccc6c5n(C)c(=O)n6C5CCC(=O)NC5=O)CC4)cc3F)nc12 (racemic) [Compound 18]
91%	< 0.152 nM	94%	79%	0.52 nM	0.21 nM	CC(C)Oc1c(-c2cn[nH]c2)ncn2nc(Nc3ccc(S(=O)(=O)N(C)CCCN4CCC(c5ccc6c(c5)n(C)c(=O)n6[C@H]5CCC(=O)NC5=O)CC4)cc3F)nc12 (racemic) [Compound 16]

The remaining lines, values behind:

SMILES	CDK2 HIBIT PQ Max (%) [1]	DC50 [1]	Dmax [2]	CCNE1 HIBIT PQ Max (%) [3]	DC50 [2]	DC50 [3]
CC(C)Oc1c(-c2cn[nH]c2)ncn2nc(Nc3ccc(S(=O)(=O)c4cccc(C(C)N5CCN(c6ccc7c(N8CCC(=O)NC8=O)nn(C)c7c6)C6CC65)c4)cc3F)nc12 (centres unmarked) [Compound 83]	89%	7.6 nM	23%	28%	–	–
CC(C)Oc1c(-c2cn[nH]c2)ncn2nc(Nc3ccc(S(=O)(=O)c4cccc(C[C@H]5C[C@@H](c6ccc7c(c6)CN([C@@H]6CCC(=O)NC6=O)C7=O)C5)c4)cc3F)nc12 (stereo in doubt) [Compound 79, (R)-3-(5-((1r,3S)-3-(3-((3-fluoro-4-((8-isopropoxy-7-(1H-pyrazol-4-yl)-[1,2,4]triazolo[1,5-c]pyrimidin-2-yl)amino)phenyl)sulfonyl)benzyl)cyclobutyl)-1-oxoisoindolin-2-yl)piperidine-2,6-dione]	96%	5.9 nM	26%	84%	–	13.1 nM
CC(C)Oc1c(-c2cn[nH]c2)ncn2nc(Nc3ccc(S(=O)(=O)N4CCC5(CCN(CC6CN(c7cccc8c7n(C)c(=O)n8C7CCC(=O)NC7=O)C6)C5)C4)cc3F)nc12 (centres unmarked) [Compound 75]	85%	4.7 nM	55%	28%	92.5 nM	–
CC(C)Oc1c(-c2cn[nH]c2)ncn2nc(Nc3ccc(S(=O)(=O)N4CCCC(CN5CCN(c6ccc7c(N8CCC(=O)NC8=O)nn(C)c7c6)C(C)C5)C4)cc3F)nc12 (centres unmarked) [Compound 91]	84%	3.2 nM	67%	71%	61.5 nM	12.5 nM
CC(C)Oc1c(-c2cn[nH]c2)ncn2nc(Nc3ccc(S(=O)(=O)N4CCC[C@@H](CN5CC[C@@H](c6ccc7c(N8CCC(=O)NC8=O)nn(C)c7c6)CC5(C)C)C4)cc3F)nc12 (single isomer, unassigned) [Compound 105]	63%	0.9 nM	25%	24%	–	–
CC(C)Oc1c(-c2cn[nH]c2)ncn2nc(Nc3ccc(S(=O)(=O)N(C)CCCN4CCN(c5ccc6c(c5)n(C)c(=O)n6C5CCC(=O)NC5=O)C[C@@H]4C(C)C)cc3F)nc12 (some centres unmarked) [Compound 64]	89%	0.2 nM	74%	65%	3.38 nM	1.79 nM
CC(C)Oc1c(-c2cn[nH]c2)ncn2nc(Nc3ccc(S(=O)(=O)c4cccc(C[C@H]5C[C@@H](c6ccc7c(N8CCC(=O)NC8=O)nn(C)c7c6)C5)c4)cc3F)nc12 [Compound 90, rel-1-(6-((1r,3s)-3-(3-((3-fluoro-4-((8-isopropoxy-7-(1H-pyrazol-4-yl)-[1,2,4]triazolo[1,5-c]pyrimidin-2-yl)amino)phenyl)sulfonyl)benzyl)cyclobutyl)-1-methyl-1H-indazol-3-yl)dihydropyrimidine-2,4(1H,3H)-dione]	91%	14.3 nM	14%	48%	–	–
CC(C)Oc1c(-c2cn[nH]c2)ncn2nc(Nc3ccc(S(=O)(=O)c4cccc(CN5CCN(c6ccc7c(N8CCC(=O)NC8=O)nn(C)c7c6)CC5C)c4)cc3F)nc12 (racemic) [Compound 39]	96%	3.3 nM	60%	67%	58.5 nM	14.9 nM
CC(C)Oc1c(-c2cn[nH]c2)ncn2nc(Nc3ccc(S(=O)(=O)c4cccc(CN5CCC(c6cccc7c(N8CCC(=O)NC8=O)nn(C)c67)CC5)c4)cc3F)nc12 [Compound 26]	84%	3.8 nM	13%	51%	–	2.4 nM
CC(C)Oc1c(-c2cn[nH]c2)ncn2nc(Nc3ccc(S(=O)(=O)N(C)CCCN4CCN(c5ccc6c(c5)n(C)c(=O)n6C5CCC(=O)NC5=O)C[C@H]4C(C)C)cc3F)nc12 (some centres unmarked) [Compound 65]	85%	0.2 nM	49%	39%	–	–
CC(C)Oc1c(-c2cn[nH]c2)ncn2nc(Nc3ccc(S(=O)(=O)c4cccc(N5CCC6C5CN6c5ccc6c(c5)CN(C5CCC(=O)NC5=O)C6=O)c4)cc3F)nc12 (centres unmarked) [Compound 34, 3-(5-{2-[3-(3-fluoro-4-{[8-isopropoxy-7-(1H-pyrazol-4-yl)-[1,2,4]triazolo[1,5-c]pyrimidin-2-yl]amino}benzenesulfonyl)phenyl]-2,6-diazabicyclo[3.2.0]heptan-6-yl}-1-oxo-3H-isoindol-2-yl)piperidine-2,6-dione]	86%	5.6 nM	31%	62%	–	14.1 nM
